Measurements from publication PMC5630632, “Assessing inhibitors of mutant isocitrate dehydrogenase using a suite of pre-clinical discovery assays” (Scientific Reports, 2017).

Molecular target: P-glycoprotein (P-gp, MDR1, ABCB1) (Homo sapiens, UniProt P08183)
Test: Bidirectional MDCK-MDR1 permeability assay (Cyprotex)
Settings: dog, MDCK-MDR1

P-glycoprotein (P-gp, MDR1, ABCB1), sequence (P08183 whole entry): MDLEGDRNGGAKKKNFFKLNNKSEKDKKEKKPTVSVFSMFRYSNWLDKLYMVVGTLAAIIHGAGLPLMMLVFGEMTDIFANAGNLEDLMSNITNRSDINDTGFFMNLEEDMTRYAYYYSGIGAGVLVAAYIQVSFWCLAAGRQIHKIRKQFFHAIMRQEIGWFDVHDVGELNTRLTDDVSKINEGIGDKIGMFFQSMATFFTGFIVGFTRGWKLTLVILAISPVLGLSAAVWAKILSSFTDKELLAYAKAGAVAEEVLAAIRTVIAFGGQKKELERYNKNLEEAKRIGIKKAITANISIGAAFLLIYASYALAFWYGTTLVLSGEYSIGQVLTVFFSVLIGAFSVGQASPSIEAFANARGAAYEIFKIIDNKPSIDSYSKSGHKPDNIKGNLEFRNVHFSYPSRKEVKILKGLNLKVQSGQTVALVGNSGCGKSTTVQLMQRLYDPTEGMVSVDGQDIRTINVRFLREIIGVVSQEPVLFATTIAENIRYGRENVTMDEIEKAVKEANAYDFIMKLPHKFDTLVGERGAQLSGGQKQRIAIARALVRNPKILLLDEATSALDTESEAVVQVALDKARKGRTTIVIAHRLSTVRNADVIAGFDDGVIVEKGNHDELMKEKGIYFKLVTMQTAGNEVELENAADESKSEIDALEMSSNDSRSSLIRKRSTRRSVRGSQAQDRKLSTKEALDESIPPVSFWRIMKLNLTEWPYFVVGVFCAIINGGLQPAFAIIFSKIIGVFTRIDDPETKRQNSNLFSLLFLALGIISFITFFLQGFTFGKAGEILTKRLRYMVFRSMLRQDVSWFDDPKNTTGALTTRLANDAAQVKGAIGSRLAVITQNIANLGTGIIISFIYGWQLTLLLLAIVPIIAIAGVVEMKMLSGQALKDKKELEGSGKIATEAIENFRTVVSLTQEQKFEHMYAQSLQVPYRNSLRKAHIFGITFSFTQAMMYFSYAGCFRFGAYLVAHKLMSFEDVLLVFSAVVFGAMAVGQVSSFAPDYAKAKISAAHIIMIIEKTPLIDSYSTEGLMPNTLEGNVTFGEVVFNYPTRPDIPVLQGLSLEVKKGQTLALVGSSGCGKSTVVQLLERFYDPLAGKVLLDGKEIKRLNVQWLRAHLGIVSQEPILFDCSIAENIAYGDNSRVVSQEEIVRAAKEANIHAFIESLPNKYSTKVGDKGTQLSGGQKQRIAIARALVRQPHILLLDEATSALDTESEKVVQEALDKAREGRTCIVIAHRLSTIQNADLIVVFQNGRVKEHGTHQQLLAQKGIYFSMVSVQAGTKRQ

**Q.** `CN(C)C(=O)C(CCN1CCC(O)(c2ccc(Cl)cc2)CC1)(c1ccccc1)c1ccccc1` [loperamide] was tested. Which efflux ratio at 2 h, 10 µM did it give?
**A.** ~350
